Results published in the NIST ThermoML archive (doi:10.1021/je400250u).

How the values were obtained:
[1] = xn = mol fraction of the nth substance listed; details: 100 kPa, Liquid; for viscosity: Capillary tube (Ostwald / Ubbelohde) method; for mass density: Vibrating tube method
[2] = refractive index (Na D-line) (dimensionless); xn = mol fraction of the nth substance listed; details: 100 kPa, Liquid, Standard Abbe refractometry

C1CC[C@H]2CCCC[C@H]2C1 [cis-decahydronaphthalene] + CCCCCCCCC
Details	mass density, [1] [kg/m3]	refractive index, [2]	viscosity, [1] [mPa·s]
293.15 K, x1 = 0.1031	734.59	–	0.788
293.15 K, x1 = 0.2033	751.1	–	0.899
293.15 K, x1 = 0.2973	766.96	–	1.02
293.15 K, x1 = 0.3997	784.54	–	1.139
293.15 K, x1 = 0.4978	801.87	–	1.268
293.15 K, x1 = 0.6044	821.02	–	1.507
293.15 K, x1 = 0.6961	837.96	–	1.769
293.15 K, x1 = 0.8014	857.86	–	2.111
293.15 K, x1 = 0.8976	876.48	–	2.526
293.15 K, x1 = 1	896.85	–	3.355
298.15 K, x1 = 0.1031	730.75	1.4095	0.737
298.15 K, x1 = 0.2033	747.26	1.4168	0.826
298.15 K, x1 = 0.2973	763.14	1.4232	0.956
298.15 K, x1 = 0.3997	780.74	1.4311	1.064
298.15 K, x1 = 0.4978	798.1	1.438	1.171
298.15 K, x1 = 0.6044	817.23	1.4459	1.385
298.15 K, x1 = 0.6961	834.18	1.4533	1.624
298.15 K, x1 = 0.8014	854.08	1.4613	1.919
298.15 K, x1 = 0.8976	872.72	1.4688	2.288
298.15 K, x1 = 1	893.06	1.4776	3.011
303.15 K, x1 = 0.1031	726.86	–	0.695
303.15 K, x1 = 0.2033	743.4	–	0.786
303.15 K, x1 = 0.2973	759.3	–	0.883
303.15 K, x1 = 0.3997	776.91	–	0.986
303.15 K, x1 = 0.4978	794.29	–	1.086
303.15 K, x1 = 0.6044	813.43	–	1.276
303.15 K, x1 = 0.6961	830.38	–	1.49
303.15 K, x1 = 0.8014	850.29	–	1.748
303.15 K, x1 = 0.8976	868.92	–	2.081
303.15 K, x1 = 1	889.26	–	2.718
308.15 K, x1 = 0.1031	722.96	1.4047	0.655
308.15 K, x1 = 0.2033	739.52	1.4121	0.739
308.15 K, x1 = 0.2973	755.44	1.4189	0.826
308.15 K, x1 = 0.3997	773.07	1.4269	0.917
308.15 K, x1 = 0.4978	790.46	1.4336	1.01
308.15 K, x1 = 0.6044	809.61	1.4425	1.182
308.15 K, x1 = 0.6961	826.58	1.4492	1.372
308.15 K, x1 = 0.8014	846.49	1.4572	1.606
308.15 K, x1 = 0.8976	865.13	1.4654	1.891
308.15 K, x1 = 1	885.46	1.4736	2.47
313.15 K, x1 = 0.1031	719.05	–	0.617
313.15 K, x1 = 0.2033	735.63	–	0.698
313.15 K, x1 = 0.2973	751.56	–	0.77
313.15 K, x1 = 0.3997	769.21	–	0.852
313.15 K, x1 = 0.4978	786.62	–	0.943
313.15 K, x1 = 0.6044	805.79	–	1.099
313.15 K, x1 = 0.6961	822.76	–	1.26
313.15 K, x1 = 0.8014	842.68	–	1.476
313.15 K, x1 = 0.8976	861.33	–	1.732
313.15 K, x1 = 1	881.65	–	2.252
318.15 K, x1 = 0.1031	715.12	1.4002	0.588
318.15 K, x1 = 0.2033	731.73	1.4077	0.662
318.15 K, x1 = 0.2973	747.68	1.4145	0.728
318.15 K, x1 = 0.3997	765.35	1.4223	0.802
318.15 K, x1 = 0.4978	782.77	1.4294	0.89
318.15 K, x1 = 0.6044	801.95	1.4379	1.033
318.15 K, x1 = 0.6961	818.94	1.4452	1.174
318.15 K, x1 = 0.8014	838.88	1.4533	1.374
318.15 K, x1 = 0.8976	857.52	1.4616	1.604
318.15 K, x1 = 1	877.85	1.4696	2.079
323.15 K, x1 = 0.1031	711.17	–	0.559
323.15 K, x1 = 0.2033	727.8	–	0.626
323.15 K, x1 = 0.2973	743.78	–	0.681
323.15 K, x1 = 0.3997	761.47	–	0.753
323.15 K, x1 = 0.4978	778.9	–	0.835
323.15 K, x1 = 0.6044	798.11	–	0.965
323.15 K, x1 = 0.6961	815.11	–	1.094
323.15 K, x1 = 0.8014	835.06	–	1.262
323.15 K, x1 = 0.8976	853.71	–	1.477
323.15 K, x1 = 1	874.05	–	1.912
